According to article PMC10269775, “Penicillin-Binding Protein Occupancy Dataset for 18 β-Lactams and 4 β-Lactamase Inhibitors in Neisseria gonorrhoeae” (Microbiology Spectrum, 2023):
In brackets after ≈: the same amount, converted by molar mass. Read-outs that look alike come from different tables or passages of the source.

Key:
[1] = tested on: N. gonorrhoeae ATCC 19424 and ATCC 49226; test: MIC, summary over both strains; assay type: cell-based, Neisseria gonorrhoeae
[2] = tested on: N. gonorrhoeae ATCC 19424; test: MIC, CLSI broth microdilution; assay type: cell-based; conditions: Neisseria gonorrhoeae
[3] = tested on: N. gonorrhoeae ATCC 49226; test: MIC, CLSI broth microdilution; assay type: cell-based, Neisseria gonorrhoeae; conditions: for MIC: Neisseria gonorrhoeae
PBP1 [4] = target: T1, PBP1 (Neisseria gonorrhoeae, UniProt O05131); test: PBP-binding assay (Bocillin FL) in isolated membrane preparations; conditions: strain ATCC 19424; membrane preparation, 30 min drug then Bocillin FL; read-out: IC50 PBP1 (converted)
T1 construct: endogenous in cells; host or cells: N. gonorrhoeae ATCC 19424, isolated membrane preparation
Source text: (§1) Bacterial membranes were collected by ultracentrifugation.

PBP2 [5] = target: T2, PBP2 (Neisseria gonorrhoeae, UniProt P08149, A510V/A516G/A574V/F504L/H541N/I556V/I566V/K555Q/P552V); test: biochemical; assay type: binding, Neisseria gonorrhoeae ATCC 49226
T2 construct: endogenous in cells; host or cells: N. gonorrhoeae ATCC 49226, isolated membrane preparation

PBP2 [6] = target: T3, PBP2 (Neisseria gonorrhoeae, UniProt P08149, H541N); test: PBP-binding assay (Bocillin FL) in isolated membrane preparations; parameters: species or system Neisseria gonorrhoeae ATCC 19424
T3 construct: endogenous in cells; host or cells: N. gonorrhoeae ATCC 19424, isolated membrane preparation

PBP1 [7] = target: T4, PBP1 (Neisseria gonorrhoeae, UniProt O05131, A375T/F666S); test: as above; parameters: species or system Neisseria gonorrhoeae ATCC 49226
T4 construct: endogenous in cells; host or cells: N. gonorrhoeae ATCC 49226, isolated membrane preparation
Source text: as §1

PBP1, PBP2 and PBP3 [8] = assay type: binding, Neisseria gonorrhoeae ATCC 19424; conditions: strain ATCC 19424
PBP3 [9] = target: T5, PBP3 (Neisseria gonorrhoeae, UniProt Q5FAB9); conditions: read-out: IC50 PBP3; strain ATCC 19424; membrane preparation, 30 min drug then Bocillin FL
T5 sequence (Q5FAB9 22-469): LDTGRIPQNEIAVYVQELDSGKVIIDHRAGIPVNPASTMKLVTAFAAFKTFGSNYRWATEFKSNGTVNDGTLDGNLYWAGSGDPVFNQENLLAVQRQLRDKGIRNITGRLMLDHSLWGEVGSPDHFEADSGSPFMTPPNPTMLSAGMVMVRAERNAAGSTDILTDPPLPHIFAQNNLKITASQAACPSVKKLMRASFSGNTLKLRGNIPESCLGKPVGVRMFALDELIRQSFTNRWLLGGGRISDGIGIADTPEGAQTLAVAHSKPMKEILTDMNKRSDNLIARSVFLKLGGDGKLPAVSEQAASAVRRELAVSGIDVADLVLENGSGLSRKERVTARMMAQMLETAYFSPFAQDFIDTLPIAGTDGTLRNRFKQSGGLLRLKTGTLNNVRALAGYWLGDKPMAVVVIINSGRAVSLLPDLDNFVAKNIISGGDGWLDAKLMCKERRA

PBP1, PBP2 and PBP3 [10] = target: T6, PBP1, PBP2 and PBP3 (Neisseria gonorrhoeae, UniProt Q5FAB9); assay type: binding, Neisseria gonorrhoeae ATCC 49226; conditions: read-out: min. IC50 (minimum observed IC50 value); strain ATCC 49226
T6 sequence (Q5FAB9 22-469): T5 sequence (Q5FAB9 22-469)

PBP3 [11] = target: T5, PBP3; conditions: read-out: IC50 PBP3; strain ATCC 49226; membrane preparation, 30 min drug then Bocillin FL
PBP1, PBP2 and PBP3 [12] = target: T6, PBP1, PBP2 and PBP3; assay type: binding, Neisseria gonorrhoeae ATCC 19424; conditions: read-out: min. IC50 (minimum observed IC50 value); strain ATCC 19424
PBP1, PBP2 and PBP3 [13] = target: PBP1, PBP2 and PBP3 (Neisseria gonorrhoeae, UniProt P08149, A510V/A516G/A574V/F504L/H541N/I556V/I566V/K555Q/P552V); assay type: binding, Neisseria gonorrhoeae ATCC 49226; conditions: read-out: min. IC50 (minimum observed IC50 value); strain ATCC 49226
PBP1, PBP2 and PBP3 [14] = target: PBP1, PBP2 and PBP3 (Neisseria gonorrhoeae, UniProt P08149, H541N); assay type: binding, Neisseria gonorrhoeae ATCC 19424; conditions: read-out: min. IC50 (minimum observed IC50 value); strain ATCC 19424
PBP2 [15] = target: PBP2 (Neisseria gonorrhoeae, UniProt P08149); conditions: read-out: IC50 for PBP2; across both strains ATCC 19424 and ATCC 49226
[16] = ATCC19424, strain ATCC 19424, read-out: MIC
[17] = ATCC19424, strain ATCC 19424, read-out: MIC (Table S1)
[18] = ATCC49226, strain ATCC 49226, read-out: MIC
[19] = ATCC49226, strain ATCC 49226, read-out: MIC (Table S1)
[20] = IC50 PBP2, strain ATCC 49226, membrane preparation, 30 min drug then Bocillin FL
[21] = IC50 PBP2, strain ATCC 19424, membrane preparation, 30 min drug then Bocillin FL
[22] = IC50 PBP1, strain ATCC 49226, membrane preparation, 30 min drug then Bocillin FL
[23] = IC50 PBP2 (Table S1), strain ATCC 49226
[24] = IC50 PBP2 (Table S1), strain ATCC 19424

Row | SMILES | MIC [2, 16] [µg/mL] | MIC [2, 17] [µg/mL] | MIC [3, 18] [µg/mL] | MIC [3, 19] [µg/mL] | IC50 (PBP1 [4]) [µM] | IC50 (PBP2 [5]; [20]) [µM] | IC50 (PBP2 [6]; [21]) [µM] | IC50 (PBP1 [7]; [22]) [µM] | IC50 (PBP2 [5]; [23]) [µM] | IC50 (PBP3 [9]) [µM] | IC50 (PBP3 [11]) [µM] | IC50 (PBP2 [6]; [24]) [µM] | IC50 (PBP1, PBP2 and PBP3 [13]) [µM] | IC50 (PBP1, PBP2 and PBP3 [14]) [µM] | IC50 (PBP2 [15]) [µM] | also measured
1 | C[C@@H](O)[C@H]1C(=O)N2C(C(=O)O)=C(SCCN=CN)C[C@H]12 [IPM, imipenem] | 0.032 (≈ 0.107 µM) | 0.032 (≈ 0.107 µM) | 0.064 (≈ 0.214 µM) | 0.064 (≈ 0.214 µM) | 1.34 | 0.568 | 0.234 | 2.67 |  |  |  |  |  |  |  | MIC ([1]; Neisseria gonorrhoeae, across the two ATCC strains): 0.032 to 0.064 µg/mL (≈ 0.107 to 0.214 µM)
2 | C[C@@H](O)[C@H]1C(=O)N2C(C(=O)O)=C(S[C@@H]3CN[C@H](CNS(N)(=O)=O)C3)[C@H](C)[C@H]12 [DOR, doripenem] | 0.004 (≈ 0.00951 µM) | 0.004 (≈ 0.00951 µM) | 0.032 (≈ 0.0761 µM) | 0.032 (≈ 0.0761 µM) | 2.69 | 0.19 | 0.143 | 2.57 | 0.214 |  |  |  |  |  |  | min. IC50 (minimum observed IC50 value) (PBP1, PBP2 and PBP3 [8]): 0.01 µg/mL
3 | O=C(NC1CCNCC1)[C@@H]1CC[C@@H]2CN1C(=O)N2OS(=O)(=O)O [REL, relebactam] |  |  |  |  | > 1470 | > 735 | > 1470 | > 735 | > 1470 | 3.65 | 3.76 | 1470 |  |  |  | MIC ([2]; ATCC19424): > 256 µg/mL; MIC ([2]; ATCC19424, read-out: MIC (Table S1)): 512 µg/mL (≈ 1470 µM); MIC ([3]; ATCC49226): > 256 µg/mL; MIC ([3]; ATCC49226, read-out: MIC (Table S1)): 512 µg/mL (≈ 1470 µM); IC50 (PBP1, PBP2 and PBP3 [10]): 3.76 µM; IC50 (PBP1, PBP2 and PBP3 [12]): 3.65 µM; IC50 (PBP1 [7]; IC50 PBP1 (Table S1), strain ATCC 49226): > 1470 µM
4 | CO/N=C(\C(=O)N[C@@H]1C(=O)N2C(C(=O)O)=C(COC(C)=O)CS[C@H]12)c1csc(N)n1 [CTX, cefotaxime] | 0.004 (≈ 0.00878 µM) | 0.004 (≈ 0.00878 µM) | 0.008 (≈ 0.0176 µM) | 0.008 (≈ 0.0176 µM) | 4.06 | 0.022 | 0.022 | > 4.39 |  | 3.14 | 2.24 |  | 0.022 | 0.022 | 0.022 | 
5 | C[C@@H](O)[C@H]1C(=O)N2C(C(=O)O)=C(S[C@@H]3CN[C@H](C(=O)N(C)C)C3)[C@H](C)[C@H]12 [MEM, meropenem] | 0.008 (≈ 0.0209 µM) | 0.008 (≈ 0.0209 µM) | 0.016 (≈ 0.0417 µM) | 0.016 (≈ 0.0417 µM) | 0.626 |  |  | 1.17 |  |  |  | 0.104 |  |  |  | times more active ([1]; compared with imipenem): 8 times
6 | C=CC1=C(C(=O)O)N2C(=O)[C@@H](NC(=O)/C(=N\OCC(=O)O)c3csc(N)n3)[C@H]2SC1 [CFM, cefixime] | 0.004 (≈ 0.00882 µM) | 0.004 (≈ 0.00882 µM) | 0.016 (≈ 0.0353 µM) | 0.016 (≈ 0.0353 µM) | 2.03 | 0.0441 | 0.0221 | > 4.41 |  | > 4.41 | > 4.41 |  | 0.0441 | 0.0221 | 0.0221 | MIC increase for strain ATCC 49226 ([3]; ATCC 49226 versus ATCC 19424): 4 fold
